Measured values reported in patent US5075289A, “9-R-azacyclic erythromycin antibiotics” (priority 1988, dated 1991).
≈ marks a conversion by molar mass, not a printed value. Like-named read-outs stand apart in the source and are kept apart here.

Legend:
Assay type in all cases: cell-based
[1] = test system: Enterococcus faecium ATCC 8043; assay: In vitro antibacterial activity, agar dilution MIC
Method: (§1) The antimicrobial spectra of a number of compounds of the invention were tested by the following method:
(§2) Twelve petri dishes containing successive aqueous dilutions of the test compound mixed with 10 ml of sterilized Brain Heart Infusion agar (Difco 0418-01-5) are prepared. Each plate is inoculated with 1:100 (or 1:10 for slow growing strains, primarily Micrococcus and Streptococcus) dilutions of up to 32 different microorganisms, using a Steers replicator block The inoculated plates are incubated at 35°-37° C. for 20-24 hours. In addition, a control plate, using BHI agar containing no test compound, is prepared and incubated at the beginning and end of each test.
(§3) An additional plate containing a compound having known susceptibility patterns for the organisms being tested and belonging to the same antibiotic class as the test compound is also prepared and incubated as a further control, as well as to provide test-to-test comparability. Erythromycin A was used for this purpose.
(§4) After incubation, each disk is read. The MIC is defined as the lowest concentration of drug yielding no growth, a slight haze, or sparsely isolated colonies on the inoculum spot as compared to the growth control.

[2] = test system: Escherichia coli DC-2; assay: In vitro antibacterial activity, agar dilution MIC
Method: as §1, §2, §3, §4

[3] = test system: Escherichia coli H560; assay: In vitro antibacterial activity, agar dilution MIC
Method: as §1, §2, §3, §4

[4] = test system: Escherichia coli Juhl; assay: In vitro antibacterial activity, agar dilution MIC
Method: as §1, §2, §3, §4

[5] = test system: Escherichia coli SS; assay: In vitro antibacterial activity, agar dilution MIC
Method: as §1, §2, §3, §4

[6] = test system: Micrococcus luteus ATCC 4698; assay: In vitro antibacterial activity, agar dilution MIC
Method: as §1, §2, §3, §4

[7] = test system: Micrococcus luteus ATCC 9341; assay: In vitro antibacterial activity, agar dilution MIC
Method: as §1, §2, §3, §4

[8] = test system: Staphylococcus aureus 45; assay: In vitro antibacterial activity, agar dilution MIC
Method: as §1, §2, §3, §4

[9] = test system: Staphylococcus aureus 642A; assay: In vitro antibacterial activity, agar dilution MIC
Method: as §1, §2, §3, §4

[10] = test system: Staphylococcus aureus A5177; assay: In vitro antibacterial activity, agar dilution MIC
Method: as §1, §2, §3, §4

[11] = test system: Staphylococcus aureus ATCC 6538P; assay: In vitro antibacterial activity, agar dilution MIC; conditions: ATCC6538P
Method: as §1, §2, §3, §4

[12] = test system: Staphylococcus aureus CMX 553; assay: In vitro antibacterial activity, agar dilution MIC
Method: as §1, §2, §3, §4

[13] = test system: Staphylococcus aureus NCTC 10649; assay: In vitro antibacterial activity, agar dilution MIC
Method: as §1, §2, §3, §4

[14] = test system: Staphylococcus epidermidis 3519; assay: In vitro antibacterial activity, agar dilution MIC
Method: as §1, §2, §3, §4

[15] = test system: Streptococcus agalactiae CMX 508; assay: In vitro antibacterial activity, agar dilution MIC
Method: as §1, §2, §3, §4

[16] = test system: Streptococcus bovis A5169; assay: In vitro antibacterial activity, agar dilution MIC
Method: as §1, §2, §3, §4

[17] = test system: Streptococcus pyogenes 930 CONST; assay: In vitro antibacterial activity, agar dilution MIC
Method: as §1, §2, §3, §4

[18] = test system: Streptococcus pyogenes EES61; assay: In vitro antibacterial activity, agar dilution MIC
Method: as §1, §2, §3, §4

[19] = test system: Staphylococcus aureus 45 RAR 2; assay: microbe, parasite or virus in culture; conditions: 45RAR2
Method: as §1, §2, §3, §4

[20] = test system: Staphylococcus aureus CMX 503A; assay: In vitro antibacterial activity, agar dilution MIC; conditions: CMX503A
Method: as §1, §2, §3, §4

[21] = test system: Streptococcus pyogenes 2548 INDUC; assay: In vitro antibacterial activity, agar dilution MIC
Method: as §1, §2, §3, §4

[22] = test system: Staphylococcus aureus CMX 686B; assay: In vitro antibacterial activity, agar dilution MIC; conditions: CMX686B
Method: as §1, §2, §3, §4

[23] = ATCC9341, M. luteus ATCC 9341, Brain Heart Infusion agar, 20-24 hours, read-out: MIC
[24] = S. aureus A5177, Brain Heart Infusion agar, 20-24 hours, read-out: MIC
[25] = CMX553, S. aureus CMX 553, Brain Heart Infusion agar, 20-24 hours, read-out: MIC
[26] = S. epidermidis 3519, Brain Heart Infusion agar, 20-24 hours, read-out: MIC
[27] = CMX508, S. agalactiae CMX 508, Brain Heart Infusion agar, 20-24 hours, read-out: MIC
[28] = S. pyogenes EES61, Brain Heart Infusion agar, 20-24 hours, read-out: MIC
[29] = ATCC8043, E. faecium ATCC 8043, Brain Heart Infusion agar, 20-24 hours, read-out: MIC
[30] = E. coli H560, Brain Heart Infusion agar, 20-24 hours, read-out: MIC
[31] = E. coli Juhl, Brain Heart Infusion agar, 20-24 hours, read-out: MIC
[32] = E. coli SS, Brain Heart Infusion agar, 20-24 hours, read-out: MIC
[33] = ATCC4698, M. luteus ATCC 4698, Brain Heart Infusion agar, 20-24 hours, read-out: MIC
[34] = S. aureus 45, Brain Heart Infusion agar, 20-24 hours, read-out: MIC
[35] = S. bovis A5169, Brain Heart Infusion agar, 20-24 hours, read-out: MIC
[36] = S. pyogenes 2548 INDUC, Brain Heart Infusion agar, 20-24 hours, read-out: MIC

Row | SMILES | MIC ([1]; ATCC8043) | MIC ([2]; DC2) | MIC ([3]; H560) | MIC [4] | MIC ([6]; ATCC4698) | MIC [7, 23] | MIC [8]; 45 | MIC [10, 24] | MIC [11] | MIC [12, 25] | MIC [14, 26] | MIC [15, 27] | MIC ([17]; 930CONST) | MIC [18, 28] | MIC [19] | MIC [1, 29] | MIC [3, 30] | MIC [4, 31] | MIC [5, 32] | MIC [6, 33] | also measured
1 | CC[C@H]1OC(=O)[C@H](C)[C@@H](O[C@H]2C[C@@](C)(OC)[C@@H](O)[C@H](C)O2)[C@H](C)[C@@H](O[C@@H]2O[C@H](C)C[C@H](N(C)C)[C@H]2O)[C@](C)(O)C[C@@H](C)[C@@H](N2CCCC(C)(C)C2)[C@H](C)[C@@H](O)[C@]1(C)O [Example 1] | 0.1 µg/mL (≈ 0.12 µM) | 50 µg/mL (≈ 60.2 µM) | 6.2 µg/mL (≈ 7.46 µM) | 25 µg/mL (≈ 30.1 µM) | 0.1 µg/mL (≈ 0.12 µM) | 0.05 µg/mL (≈ 0.0602 µM) | 0.39 µg/mL (≈ 0.469 µM) | 6.2 µg/mL (≈ 7.46 µM) | 0.39 µg/mL (≈ 0.469 µM) | 0.78 µg/mL (≈ 0.938 µM) | 0.78 µg/mL (≈ 0.938 µM) | 0.1 µg/mL (≈ 0.12 µM) | > 100 µg/mL | 0.1 µg/mL (≈ 0.12 µM) | 0.78 µg/mL (≈ 0.938 µM) | – | – | – | – | – | MIC ([5]; read-out: MIC): 0.2 µg/mL (≈ 0.241 µM); MIC ([9]; S. aureus 642A, Brain Heart Infusion agar, 20-24 hours, read-out: MIC): 0.78 µg/mL (≈ 0.938 µM); MIC ([13]; NCTC10649, S. aureus NCTC 10649, Brain Heart Infusion agar, 20-24 hours, read-out: MIC): 0.78 µg/mL (≈ 0.938 µM); MIC ([16]; read-out: MIC): 0.02 µg/mL (≈ 0.0241 µM)
2 | CC[C@H]1OC(=O)[C@H](C)[C@@H](O[C@H]2C[C@@](C)(OC)[C@@H](O)[C@H](C)O2)[C@H](C)[C@@H](O[C@@H]2O[C@H](C)C[C@H](N(C)C)[C@H]2O)[C@](C)(O)C[C@@H](C)[C@@H](N2CCCCCC2)[C@H](C)[C@@H](O)[C@]1(C)O [Example 2] | – | 12.5 µg/mL (≈ 15.3 µM) | – | – | – | 0.005 µg/mL (≈ 0.00612 µM) | – | 0.31 µg/mL (≈ 0.379 µM) | 0.39 µg/mL (≈ 0.477 µM) | – | – | 0.05 µg/mL (≈ 0.0612 µM) | > 100 µg/mL | 0.05 µg/mL (≈ 0.0612 µM) | 0.39 µg/mL (≈ 0.477 µM) | 0.02 µg/mL (≈ 0.0245 µM) | 3.1 µg/mL (≈ 3.79 µM) | 0.1 µg/mL (≈ 0.122 µM) | 0.1 µg/mL (≈ 0.122 µM) | 0.1 µg/mL (≈ 0.122 µM) | MIC [8, 34]: 0.2 µg/mL (≈ 0.245 µM); MIC ([9]; 642A): 0.39 µg/mL (≈ 0.477 µM); MIC [20]: 0.39 µg/mL (≈ 0.477 µM); MIC ([12]; CMX553): 0.39 µg/mL (≈ 0.477 µM); MIC ([13]; NCTC10649): 0.39 µg/mL (≈ 0.477 µM); MIC [14]; 3519: 0.39 µg/mL (≈ 0.477 µM); MIC [16, 35]: 0.02 µg/mL (≈ 0.0245 µM); MIC [21, 36]: 12.5 µg/mL (≈ 15.3 µM)
3 | CC[C@H]1OC(=O)[C@H](C)[C@@H](O[C@H]2C[C@@](C)(OC)[C@@H](O)[C@H](C)O2)[C@H](C)[C@@H](O[C@@H]2O[C@H](C)C[C@H](N(C)C)[C@H]2O)[C@](C)(O)C[C@@H](C)[C@@H](N2CCCC2)[C@H](C)[C@@H](O)[C@]1(C)O [Example 3] | – | – | – | – | – | 0.39 µg/mL (≈ 0.494 µM) | – | 25 µg/mL (≈ 31.7 µM) | – | 1.56 µg/mL (≈ 1.98 µM) | 1.56 µg/mL (≈ 1.98 µM) | 0.2 µg/mL (≈ 0.253 µM) | – | 0.1 µg/mL (≈ 0.127 µM) | 1.56 µg/mL (≈ 1.98 µM) | 0.39 µg/mL (≈ 0.494 µM) | 50 µg/mL (≈ 63.4 µM) | > 100 µg/mL | 0.39 µg/mL (≈ 0.494 µM) | 0.78 µg/mL (≈ 0.989 µM) | MIC ([2]; DC2, E. coli DC-2, Brain Heart Infusion agar, 20-24 hours, read-out: MIC): 100 µg/mL (≈ 127 µM); MIC [8, 34]: 0.78 µg/mL (≈ 0.989 µM); MIC ([11]; S. aureus ATCC 6538P, Brain Heart Infusion agar, 35-37° C., 20-24 hours, read-out: MIC): 1.56 µg/mL (≈ 1.98 µM); MIC [20]: 1.56 µg/mL (≈ 1.98 µM); MIC [22]: 1.56 µg/mL (≈ 1.98 µM); MIC [16, 35]: 0.1 µg/mL (≈ 0.127 µM); MIC [21, 36]: 50 µg/mL (≈ 63.4 µM); MIC ([17]; S. pyogenes 930 CONST, Brain Heart Infusion agar, 20-24 hours, read-out: MIC): > 100 µg/mL
4 | CC[C@H]1OC(=O)[C@H](C)[C@@H](O[C@H]2C[C@@](C)(OC)[C@@H](O)[C@H](C)O2)[C@H](C)[C@@H](O[C@@H]2O[C@H](C)C[C@H](N(C)C)[C@H]2O)[C@](C)(O)C[C@@H](C)[C@@H](N2CC2)[C@H](C)[C@@H](O)[C@]1(C)O [Example 4] | 0.2 µg/mL (≈ 0.263 µM) | 100 µg/mL (≈ 131 µM) | 25 µg/mL (≈ 32.9 µM) | > 100 µg/mL | 0.78 µg/mL (≈ 1.02 µM) | – | 0.78 µg/mL (≈ 1.02 µM) | – | 1.56 µg/mL (≈ 2.05 µM) | – | – | – | > 100 µg/mL | – | 1.56 µg/mL (≈ 2.05 µM) | – | – | – | – | – | MIC [5]: 0.78 µg/mL (≈ 1.02 µM); MIC ([7]; ATCC9341): 0.1 µg/mL (≈ 0.131 µM); MIC ([9]; 642A): 1.56 µg/mL (≈ 2.05 µM); MIC ([10]; A5177): 6.2 µg/mL (≈ 8.15 µM); MIC ([12]; CMX553): 1.56 µg/mL (≈ 2.05 µM); MIC ([13]; NCTC10649): 1.56 µg/mL (≈ 2.05 µM); MIC [14]; 3519: 1.56 µg/mL (≈ 2.05 µM); MIC ([15]; CMX508): 0.2 µg/mL (≈ 0.263 µM); MIC [16]: 0.1 µg/mL (≈ 0.131 µM); MIC ([21]; 2548INDUC): 12.5 µg/mL (≈ 16.4 µM); MIC ([18]; EES61): 0.2 µg/mL (≈ 0.263 µM)
